For experiment [1], the target named is Rhipicephalus appendiculatus rMS-HBP1, His6-tagged, SEQ ID NO: 20 (Rhipicephalus appendiculatus, UniProt O77422). The conditions noted are these: ^3H-histamine ~0.3 pmol (11,200 cpm), rMS-HBP1 ~100 pmol, 5 measurements.
The target in experiment [2] is Rhipicephalus appendiculatus FS-HBP2 (SEQ ID NO: 18) truncated version lacking the 45 N-terminal amino acids, bacterially expressed (Rhipicephalus appendiculatus, UniProt O77421).
The target in experiment [3] is Rhipicephalus appendiculatus FS-HBP2 (SEQ ID NO: 18) truncated version lacking the 28 C-terminal amino acids, bacterially expressed (Rhipicephalus appendiculatus, UniProt O77421).
Sequence of Rhipicephalus appendiculatus FS-HBP2 (SEQ ID NO: 18) truncated version lacking the 28 C-terminal amino acids, bacterially expressed (O77421 20-162): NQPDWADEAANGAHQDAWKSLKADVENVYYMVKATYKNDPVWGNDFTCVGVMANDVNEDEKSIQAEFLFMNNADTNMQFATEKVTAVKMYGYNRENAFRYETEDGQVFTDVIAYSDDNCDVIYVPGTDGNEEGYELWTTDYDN
The next experiment has as its system rVABPs. Description: Competition experiment: displacement of 3H-histamine from rVABPs by histamine-like compounds. The settings on record: cold histamine, reference amount. (In a radioligand displacement assay an active substance lowers the binding of a labelled ligand.)
Experiment [4] concerns the target T1, Rhipicephalus appendiculatus rMS-HBP1, His6-tagged, expressed in Spodoptera frugiperda Sf21 cells (baculovirus), SEQ ID NO: 20 (Rhipicephalus appendiculatus, UniProt O77422).
T1 construct: Gln-Ile-(His)6 (C); made in house; host or cells: Spodoptera frugiperda Sf21 cells (baculovirus BacPak6)
Description: Histamine binding assay (radiolabelled histamine, PEG precipitation, Scatchard), rMS-HBP1. The protocol: (§1) Construction of clones. FS-HBP1, FS-HBP2 and MS-HBP1 were expressed as histidine-tagged proteins (rFS-HBP1, rFS-HBP2 and rMS-HBP1) in Spodoptera frugiperda ovarian cells (Sf21).
(§2) This plasmid pACC129.1-FS1.HIS was also used for expression of histidine-tagged FS-HBP2 and MS-HBP1. The FS-HBP1 cDNA was deleted using SacI and BamHI thus leaving the histidine codons intact. An upstream SacI and a downstream BglII site (BglII and BamHI create compatible overhangs) were added to the FS-HBP2 and MS-HBP1 coding regions by PCR. […] The forward primer, in the case of FS-HBP2 was: 5′-[…] (SEQ ID NO:5); the reverse primer was: 5′-[…] (SEQ ID NO:6). In the case of MS-HBP1 the forward primer was: 5′-[…] (SEQ ID NO:7), and the reverse primer was: 5′-[…] (SEQ ID NO:8).
(§3) Following PCR, the derived cDNAs were inserted into the vector. A Gln-Ile-(HIS)6 sequence was thus added to the carboxyterminus of the MS-HBP1 translation product, and Ile-(His)6 to the FS-HBP2 translation product.
(§4) The baculovirus expression system was used for expression of the three tagged polypeptides. Spodoptera (Sf21) cells were transfected with the transfer vectors and baculovirus (BacPak6; Clontech). Recombinant virus was amplified as according to Kitts and Possee (1993) BioTechniques 14:810-817). The VABPs are clearly secretion products since they are mainly found in the culture medium of transfected cells as well as in saliva. […]

For experiment [5], the target named is T2, Rhipicephalus appendiculatus rFS-HBP1, His6-tagged, expressed in Spodoptera frugiperda Sf21 cells (baculovirus), SEQ ID NO: 16 (Rhipicephalus appendiculatus, UniProt O77420).
T2 construct: Gly-Ile-(His)6 (C); made in house; host or cells: Spodoptera frugiperda Sf21 cells (baculovirus BacPak6)
T2 sequence (O77420 19-190, added parts left off): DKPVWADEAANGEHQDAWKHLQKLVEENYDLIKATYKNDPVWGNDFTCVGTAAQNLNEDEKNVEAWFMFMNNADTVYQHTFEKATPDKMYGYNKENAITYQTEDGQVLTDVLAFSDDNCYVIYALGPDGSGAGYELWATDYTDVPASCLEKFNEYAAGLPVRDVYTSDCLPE
The experiment can be described thus: Histamine binding assay (radiolabelled histamine, PEG precipitation, Scatchard), rFS-HBP1. The protocol: as §1
In order to append the His6 tag, the coding region of FS-HBP1 was first amplified using the polymerase chain reaction (PCR). […] The forward primer used was: 5′-[…] (SEQ ID NO:3); the reverse primer was: 5′-[…] (SEQ ID NO:4). The primers were designed so that a SacI site was added upstream of the start codon, whilst the stop codon was replaced by a BamHI site, followed by 6 histidine codons and an SpeI site comprising a TAG stop codon. The PCR product was cut with SacI and SpeI. The latter enzyme creates a compatible overhang with XbaI, enabling the fragment to be ligated between the SacI and XbaI sites of the pAcC129.1 transfer vector (Livingstone and Jones (1989) Nucleic Acids Res. 17:2366), generating the plasmid pACC129.1-FS1.HIS. This plasmid therefore contained the sequence Gly-Ile-(His)6 appended to the carboxy terminus of the FS-HBP1 translation product.
The baculovirus expression system was used for expression of the three tagged polypeptides. Spodoptera (Sf21) cells were transfected with the transfer vectors and baculovirus (BacPak6; Clontech). Recombinant virus was amplified as according to Kitts and Possee (1993) BioTechniques 14:810-817). […]

For experiment [6], the target named is T3, Rhipicephalus appendiculatus rFS-HBP2, His6-tagged, expressed in Spodoptera frugiperda Sf21 cells (baculovirus), SEQ ID NO: 18 (Rhipicephalus appendiculatus, UniProt O77421).
T3 construct: Ile-(His)6 (C); made in house; host or cells: Spodoptera frugiperda Sf21 cells (baculovirus BacPak6)
T3 sequence (O77421 20-190, added parts left off): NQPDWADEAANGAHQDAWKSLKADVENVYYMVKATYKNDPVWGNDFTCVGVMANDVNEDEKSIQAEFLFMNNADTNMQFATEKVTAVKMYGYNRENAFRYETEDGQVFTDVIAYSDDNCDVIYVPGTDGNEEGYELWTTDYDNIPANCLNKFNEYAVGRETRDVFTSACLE
The experiment can be described thus: Histamine binding assay (radiolabelled histamine, PEG precipitation, Scatchard), rFS-HBP2. The protocol:
as §1, §2, §3, §4

Sequence of Rhipicephalus appendiculatus rMS-HBP1, His6-tagged, SEQ ID NO: 20 (O77422 19-200): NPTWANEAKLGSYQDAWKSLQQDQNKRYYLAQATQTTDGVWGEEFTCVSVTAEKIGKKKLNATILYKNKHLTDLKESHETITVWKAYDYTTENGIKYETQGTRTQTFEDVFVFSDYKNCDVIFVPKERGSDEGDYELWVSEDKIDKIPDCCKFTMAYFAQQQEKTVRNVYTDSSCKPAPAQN
Sequence of Rhipicephalus appendiculatus FS-HBP2 (SEQ ID NO: 18) truncated version lacking the 45 N-terminal amino acids, bacterially expressed (O77421 65-190): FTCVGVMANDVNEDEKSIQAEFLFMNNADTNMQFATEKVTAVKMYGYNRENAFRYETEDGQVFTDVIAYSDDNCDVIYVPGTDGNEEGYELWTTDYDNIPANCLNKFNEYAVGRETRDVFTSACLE
T1 sequence (O77422 19-200, added parts left off): as the sequence (O77422 19-200) above

In the case of `NCCc1c[nH]cn1` [^3H-histamine], the “bound radioligand, without added histamine” value in experiment [1] is reported as 6,840±150 cpm.

As for `NCCc1c[nH]cn1` [histamine], the binding to histamine entry in experiment [2] and in experiment [3] was “do not bind to histamine at all” in each case. In addition, in the experiment with rVABPs, the “displacement of ^3H-histamine from the binding sites” value is on record as “more than 95%”. The Kd in experiment [4] amounted to 1.2 nM; in experiment [5], 78 nM; in experiment [6], 1.7 nM. Moreover, the “bound radioligand, supplemented with histamine” value in experiment [1] (plus histamine 0.5 pmol) is given as 7,560±110 cpm.

As usually defined, the Kd is the constant that tells how readily two partners part at equilibrium.
